Structures are written as SMILES.

A short description of this data set: gradient 5% acetonitrile 3 min, to 50% in 2 min, to 85% in 15 min, held 3 min, 100 µL/min. The conditions noted are these: column: Zorbax Extend-C18 2.1 x 50 mm; eluents: water / acetonitrile, 0.1% formic acid. The procedure, abridged:
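A Zorbax Extend-C18 column (2.1 × 50 mm, 1.8 μm) run at 100 μL/min with water and acetonitrile, both containing 0.1% formic acid, separated mixtures of ~100 pure standards. The HPLC was coupled to a quadrupole time-of-flight mass spectrometer operated in positive and negative ionization mode, with dead and dwell volumes of 40 μL and 900 μL. Each retention time was taken from a computationally picked adduct peak that was then manually inspected.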
Compound `O=C(CN1C(=O)CSc2cccn2-c2ccccc21)N1CCN(c2ccccn2)CC1` had an RP-LC retention time of 607 s.

Compound `CC1(C(=O)NC2CCCCCC2)CN(S(C)(=O)=O)CC(=O)N1c1cccc(Cl)c1` (centres undefined) showed an RP-LC retention time of 882 s.

In turn, `Cc1cc(C)c(S(=O)(=O)N(CCN2CCCCC2C)CC(=O)N2CCNCC2)c(C)c1` (centres undefined) came in with an RP-LC retention time of 601 s.

In turn, `O=C(C1CCN(c2cnc(N3CCSCC3)nc2)CC1)N1CCC2(CC1)OCCO2` yielded an RP-LC retention time of 692 s.

Take `O=C(Cc1cccs1)N1CCCN(c2cc(-c3ccc4c(c3)OCO4)[nH]n2)CC1`: the RP-LC retention time is 671 s.

In turn, `CCCS(=O)(=O)N1CCC2(CC1)c1[nH]c3ccccc3c1CCN2C` came in with an RP-LC retention time of 659 s.

With `O=S(=O)(NC1CCCCCC1)c1ccc2c(c1)-c1oncc1CO2`, the RP-LC retention time was 1000 s.

As for `NS(=O)(=O)c1ccc(NC(=O)Cc2cn(Cc3ccc(F)cc3)c3ccccc23)cc1`, the RP-LC retention time came to 824 s.

`COc1ccc(Cl)cc1C(=O)CN1C(=O)COc2ccccc2C1=O` had an RP-LC retention time of 988 s.

Take `Cc1ccc(F)cc1NS(=O)(=O)c1cc(-c2[nH]ncc2C(=O)N(C)C)oc1C`: the RP-LC retention time amounted to 706 s.

Consider `CNC(C)Cc1ccccc1OC` (centres undefined), for which the RP-LC retention time was found to be 646 s.

`COCc1cc(=O)n(CC(=O)Nc2ccc(Br)cc2)c(N2CCOCC2)n1` returned an RP-LC retention time of 892 s.

In turn, `Cc1cc(C)c(S(=O)(=O)N2CCc3c(c(-c4nnc(-c5ccc(F)cc5)o4)nn3C)C2)c(C)c1` came in with an RP-LC retention time of 1090 s.

For `COc1ccc(S(=O)(=O)N2CC(F)(F)C[C@H]2c2nnc(C)o2)cc1`, the RP-LC retention time came to 788 s.

`O=C(Cc1csc(NC(=O)c2ccc(=O)[nH]c2)n1)NCc1ccccc1Cl` had an RP-LC retention time of 616 s.

For `Cn1cc(C2=CCN(S(=O)(=O)c3ccccc3F)CC2)c2cccnc21`, the RP-LC retention time came out at 944 s.

In the case of `O=C(NCCc1ccccc1)N1CCN(c2cnn3cnnc3c2)CC1`, the RP-LC retention time stood at 615 s.

In turn, `Cc1cc(F)ccc1NC(=O)Cn1nc2cc(-c3ccccc3)nc(C)n2c1=O` registered an RP-LC retention time of 909 s.

`O=C(CCC(=O)N1CC2CCCN2c2ccccc21)NCCN1CCCCCC1` (centres undefined): the RP-LC retention time stood at 646 s.

Take `COc1cc(=O)c(C(N)=O)nn1-c1ccc(F)cc1`: the RP-LC retention time was 579 s.

Compound `O=c1n(CCOc2ccc(F)cc2)nc2ccc(S(=O)(=O)N3CCCC3)cn12` returned an RP-LC retention time of 859 s.

For `Cc1nc2cccnc2n1CC1CCCN(S(=O)(=O)c2cccc(Br)c2)C1` (centres undefined), the RP-LC retention time amounted to 735 s.

`Cc1nnc(N2CCCC(C(=O)NCCc3c[nH]c4ccccc34)C2)c2nn(-c3ccccc3)c(C)c12` (centres undefined) registered an RP-LC retention time of 706 s.

`CCc1ccc(NC(=O)Cn2c(C)nc3cc4c(cc32)OCCO4)cc1` had an RP-LC retention time of 668 s.

With `Cc1cccn2c(=O)cc(OCC(=O)Nc3ccc(SC(F)F)cc3)nc12`, the RP-LC retention time was 771 s.

Compound `COc1ccc(N2CCN(Cc3nc(-c4ccc(N5CCCC(C)C5)nc4)no3)CC2)cc1` (centres undefined) had an RP-LC retention time of 1020 s.

Compound `O=C1CC(c2ccccc2)N(S(=O)(=O)c2cccc3nsnc23)CCCCCCN1` (centres undefined) had an RP-LC retention time of 886 s.

For `Cc1cccc(CNC(=O)c2cn3ccc(C)cc3n2)c1`, the RP-LC retention time was determined as 675 s.

`COc1cccc(-c2nnc(Cc3nc(-c4ccc(F)cc4)no3)o2)c1` yielded an RP-LC retention time of 1020 s.

Take `CCn1cc(-c2ccncc2)cc1C(=O)NCc1ccc(N(C)C)cc1`: the RP-LC retention time turned out to be 559 s.

With `CCNc1nc(N(C)C)nc(-n2cnc(SC)n2)n1`, the RP-LC retention time turned out to be 784 s.

With `CCc1cccc(NS(=O)(=O)c2ccc3c(c2)CCCC(=O)N3)c1`, the RP-LC retention time was 780 s.

For the compound `CCCN1CCN(C(=O)CN(C)S(=O)(=O)c2ccc3c(c2)CCCC(=O)N3)CC1`, the RP-LC retention time worked out at 577 s.

In the case of `O=C(Nc1cnc(N2CCCC2)nc1)c1ccc(Cl)cc1`, the RP-LC retention time was found to be 765 s.

`CCCNC(=O)c1cc(-c2ccc(Cl)cc2)cn1C` displayed an RP-LC retention time of 957 s.

The compound `COC(=O)c1ncn2c1C(=O)N(Cc1ccc(Cl)cc1)C(C)(C(=O)NC1CCCC1)C2` (centres undefined) yielded an RP-LC retention time of 758 s.

The compound `Cn1ccc2cc(S(=O)(=O)N3CCCC(C(=O)NCCN4CCCCCC4)C3)ccc21` (centres undefined) yielded an RP-LC retention time of 668 s.

For the compound `Cc1c(Cl)cccc1S(=O)(=O)N1CCC(C(=O)NCc2csc(-c3cccs3)n2)CC1`, the RP-LC retention time came out at 1020 s.

The compound `COc1ccc(CCc2nc3nccc(-c4ccc(F)cc4OC)n3n2)cc1` displayed an RP-LC retention time of 916 s.

With `Cc1ccc(NC(=O)C2CCN(S(=O)(=O)c3ccc4c(c3)NC(=O)C(C)O4)CC2)cc1Cl` (centres undefined), the RP-LC retention time was 948 s.

Compound `CC(C)n1nnc2cc(C(=O)N(C)CC(=O)Nc3ccc(F)cc3F)ccc21` returned an RP-LC retention time of 744 s.

In turn, `COc1cccc(NC(=O)CCC2CCN(S(=O)(=O)c3ccccc3)CC2)c1` registered an RP-LC retention time of 936 s.

On to `COc1ccc(-c2nc3ccc(Br)cn3c2Nc2ccc(C)cc2)cc1O`, for which the RP-LC retention time turned out to be 742 s.

As to `CCNC(=O)N1CCCC1c1nc(-c2ccc(OC)cc2)no1` (centres undefined), the RP-LC retention time was 761 s.

In turn, `COc1nn(C)cc1C(=O)N1CCCC(C(=O)NCc2ccccc2OC(F)(F)F)C1` (centres undefined) yielded an RP-LC retention time of 705 s.

As for `CCn1nc(C)c(CCNC(=O)c2ccc3nc(C(C)C)oc3c2)c1C`, the RP-LC retention time is 662 s.

On to `COc1ccc(CN2C=C(C(=O)OCc3c(C)noc3C)C(C)=NS2(=O)=O)cc1`, for which the RP-LC retention time is 934 s.

Consider `COC(=O)c1cc2c(=O)n(-c3nc4cc(C)c(C)cc4s3)ccc2nc1C`, for which the RP-LC retention time came to 1420 s.

With `Cc1cc(=O)n(CC(=O)Nc2ccccc2)c(N2CCc3ccccc3C2)n1`, the RP-LC retention time came out at 765 s.

As for `COCc1cc(=O)n2c(n1)N(Cc1ccccc1F)CC2`, the RP-LC retention time worked out at 660 s.

`Cc1cc([N+](=O)[O-])ccc1NC(=O)C(=O)NCc1cccs1` displayed an RP-LC retention time of 864 s.

On to `CN(C)S(=O)(=O)N1CCC(F)(c2nc(-c3ccccc3)no2)CC1`, for which the RP-LC retention time turned out to be 1030 s.

As to `O=C(NCc1ccccc1F)C1CCCN(c2nn3c(=O)c4c(nc3s2)CCCC4)C1` (centres undefined), the RP-LC retention time stood at 762 s.

`COc1ccc(C)cc1NC(=O)C1CCCN(c2ncnc3c2nc2n3CCCCC2)C1` (centres undefined) displayed an RP-LC retention time of 864 s.

`c1cncc(CN2CCCC(OCc3nc(-c4ccncc4)no3)C2)c1` (centres undefined) registered an RP-LC retention time of 557 s.

`Cc1ccc(NC(=O)Cn2c(C)nc3cc4c(cc32)OCCO4)c(C)c1`: the RP-LC retention time was found to be 668 s.

As for `Cc1ccc(S(=O)(=O)N2CCCN(c3ccc(=O)n(-c4ccc(F)cc4)n3)CC2)c(C)c1`, the RP-LC retention time came to 961 s.

Turning to `O=C(Nc1cccc2ccccc12)c1ccccc1`, the RP-LC retention time is 923 s.

As for `CCCCCC[C@@H]([C@@H](C)O)n1cnc2c(N)ncnc21`, the RP-LC retention time was 714 s.

On to `CC(=O)N1C[C@@H]2CCCN3CCC[C@@H]([C@H]23)[C@H]1CCCC(=O)NCCCN(C)C1CCCCC1`, for which the RP-LC retention time turned out to be 547 s.

With `O=C(c1ccc(C(F)(F)F)cc1)N1CCC(n2c(-c3ccoc3)nc3cccnc32)C1` (centres undefined), the RP-LC retention time was 827 s.

The compound `Cc1cccc(N2CCN(S(=O)(=O)c3cc(-c4nnc(C5CC5)o4)co3)CC2)c1` had an RP-LC retention time of 1020 s.

`CC(C)c1ccc(S(=O)(=O)c2ccc(=O)n(CC(=O)N3CCN(c4ccc(F)cc4)CC3)n2)cc1` returned an RP-LC retention time of 1000 s.

As for `CCN1CCN(C(=O)CN2C(=O)C3CCCCN3c3ccc(S(=O)(=O)N4CCCC4)cc32)CC1` (centres undefined), the RP-LC retention time came out at 644 s.

`Cc1ccc(N2CCC(NS(=O)(=O)c3ccccc3F)C2=O)cc1` (centres undefined) had an RP-LC retention time of 894 s.

With `Cc1ccc2c(=O)c(C(=O)N3CCC(C)CC3)cn(CC(=O)Nc3ccccc3)c2n1`, the RP-LC retention time stood at 783 s.

As to `Cc1ccc(C)c(S(=O)(=O)Nc2cnc(N3CCNCC3)c(C(=O)NC3CCCC3)c2)c1`, the RP-LC retention time is 621 s.

Take `O=C(CN1C[C@H]2C[C@H](C1)[C@H]1CCCC(=O)N1C2)NCC1CC1`: the RP-LC retention time was 563 s.

In turn, `CCOc1ccc(NC(=O)Cn2nc3cc(C)nc(-c4cccc(Cl)c4)n3c2=O)cc1` showed an RP-LC retention time of 971 s.

Turning to `O=C1OC(Cc2ccccc2)C(c2ccccc2)C1=O` (centres undefined), the RP-LC retention time stood at 976 s.

Take `COC(=O)c1cc2c(cc1NC(=O)C1CCCN(c3ncnc4c3nc3n4CCCCC3)C1)OCO2` (centres undefined): the RP-LC retention time is 943 s.

Compound `CCOc1ccccc1CN1CCO[C@@H](COC)[C@@H]1c1ccccc1` had an RP-LC retention time of 699 s.

As to `COc1ccc(-c2noc(-c3nnn4c3COC(c3ccc(Cl)cc3)C4)n2)cc1` (centres undefined), the RP-LC retention time stood at 1190 s.

The compound `CC1CCN(C(=O)Cc2nnc(-c3ccccc3)o2)CC1` had an RP-LC retention time of 770 s.

`O=C(CCC1CCN(S(=O)(=O)c2ccccc2)CC1)NCc1ccco1` registered an RP-LC retention time of 776 s.

As for `CCN1C(=O)c2cccnc2Sc2cc(NC(=O)c3c(F)cccc3Cl)ccc21`, the RP-LC retention time came to 850 s.

Consider `CCOCCCNC(=O)c1ccc(Oc2nccnc2N2CCC(C)CC2)cc1`, for which the RP-LC retention time was found to be 1030 s.

Compound `O=C(c1nnn2c1COC(c1ccccc1)C2)N1CCN(C(=O)C2(c3ccccc3)CC2)CC1` (centres undefined) showed an RP-LC retention time of 850 s.

Compound `Cc1ccc(CNC(=O)c2sc(Nc3ccc(F)cn3)nc2C)cc1` gave an RP-LC retention time of 859 s.

Values taken from the METLIN SMRT retention time set (Domingo-Almenara et al. 2019).
